In article PMC12583827, “Harnessing microbial-derived metabolites in the urinary tract to prevent infection induced catheter encrustation” (Nature Communications, 2025):
Where a name gives a salt, the structure may show the parent alone. Read-outs that look alike come from different tables or passages of the source.

How the values were obtained:
[1] = biological target: T1, P. mirabilis urease (Proteus mirabilis, UniProt P17086); type: cell-based; conditions: for effect on P. mirabilis urease activity (whole cell): potassium phosphate buffer, dose response
T1 construct: it utilizes whole bacterial cells, rather than isolated enzyme preparations; endogenous in cells; host or cells: Proteus mirabilis HI4320, live whole cells
T1 sequence (P17086 whole entry): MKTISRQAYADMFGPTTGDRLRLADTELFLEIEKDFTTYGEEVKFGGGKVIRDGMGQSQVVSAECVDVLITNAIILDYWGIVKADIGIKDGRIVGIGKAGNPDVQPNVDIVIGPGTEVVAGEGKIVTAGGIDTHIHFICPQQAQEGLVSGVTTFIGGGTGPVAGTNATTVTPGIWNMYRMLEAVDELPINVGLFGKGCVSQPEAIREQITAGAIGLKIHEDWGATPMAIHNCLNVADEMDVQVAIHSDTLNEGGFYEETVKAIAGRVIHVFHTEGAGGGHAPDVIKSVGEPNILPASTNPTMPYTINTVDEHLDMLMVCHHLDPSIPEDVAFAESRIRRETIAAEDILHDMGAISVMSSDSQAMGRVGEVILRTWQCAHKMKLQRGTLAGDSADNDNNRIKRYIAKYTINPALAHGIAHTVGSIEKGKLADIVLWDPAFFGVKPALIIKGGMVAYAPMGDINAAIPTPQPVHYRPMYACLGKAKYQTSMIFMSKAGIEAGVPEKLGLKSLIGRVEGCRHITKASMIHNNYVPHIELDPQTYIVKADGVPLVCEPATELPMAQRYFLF
T1 sequence (P17088 whole entry, further chain): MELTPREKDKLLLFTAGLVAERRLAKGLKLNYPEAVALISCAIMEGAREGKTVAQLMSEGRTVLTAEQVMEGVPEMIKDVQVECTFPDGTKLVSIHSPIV
T1 sequence (P17087 whole entry, further chain): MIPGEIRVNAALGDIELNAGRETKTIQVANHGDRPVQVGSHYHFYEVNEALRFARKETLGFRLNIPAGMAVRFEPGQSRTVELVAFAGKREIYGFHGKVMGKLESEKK
Experimental: Urease activity was measured as described previously in triplicate with at least three biological replicates[21]. Briefly, bacteria were cultured for ~18 h in LB broth, concentrated to an OD600 of 4, washed once in saline, and diluted (1:10 for P. mirabilis and 1:50 for P. stuartii and M. morganii) into candidate dampening metabolites in potassium phosphate buffer or human urine pH7 and supplemented with 500 mM urea and 0.01% phenol red. Bacterial suspensions were distributed into a 96-well plate, incubated at 37 °C with double-orbital shaking in a Synergy H1 plate reader (BioTek), and absorbance (OD562) was measured every 60 seconds for 180 minutes. Isogenic urease mutants (Supplementary Data 1) served as negative controls for P. mirabilis and P. stuartii and a vehicle control served as a negative control for M. morganii.

[2] = biological target: T2, urease of P. mirabilis HI4320 cell free extracts (Proteus mirabilis, UniProt P17086); type: biochemical
T2 construct: 20ul of cell-free extract were distributed into a 96-well plate in place of the whole cell bacterial suspensions; endogenous in cells; host or cells: Proteus mirabilis HI4320, urea-induced; freeze-thaw and sonication lysate, clarified supernatant
T2 sequence (P17088 whole entry): as the sequence (P17088 whole entry, further chain) above
T2 sequence (P17086 whole entry): as the sequence (P17086 whole entry) above
T2 sequence (P17087 whole entry, further chain): as the sequence (P17087 whole entry, further chain) above
Experimental: To measure urease activity of the cell free extracts of P. mirabilis, P. mirabilis was cultured for ~18 h in LB broth and then sub cultured until it reached mid-log growth phase (OD600 0.2-0.5). Cultures were spun down to pellet at 10,000 rcf for 10 minutes and resuspended in saline to a final OD600 of 1.0. Cultures were then diluted 1:10 in potassium phosphate buffer pH7 supplemented with 500 mM urea and incubated at 37 °C with shaking for 1 h to induce its urease enzyme production. The isogenic urease mutant Pm ureF::kan (Supplementary Data 1) served as negative control. Cultures then were spun down to pellet at 10,000 rcf for 10 minutes and resuspended in 2 mL saline. Cultures were subjected to four cycles of freezing in liquid nitrogen and thawing in a 37 °C water bath. Cultures were then probe sonicated (on ice) at 25% amplitude for 10 sec. Sonicated cultures were centrifuged at 18,900 Xg for 5 min and supernatants were transferred to a clean tube and stored on ice. To measure urease activity of cell free extracts, the previously described assay was modified such that 20ul of cell-free extract were distributed into a 96-well plate in place of the whole cell bacterial suspensions. Acetohydroxamic acid (AHA), was used as a positive control. Percent of maximum urease activity was calculated using Area Under the Curve (AUC) relative to untreated cell free extracts of P. mirabilis.

[3] = biological target: T3, Jack Bean Urease (JBU) (Canavalia ensiformis, UniProt P07374); type: biochemical; conditions: for JBU activity: 0.1 U JBU, 500 mM urea
T3 construct: purchased Sigma-Aldrich
T3 sequence (P07374 whole entry, looked up): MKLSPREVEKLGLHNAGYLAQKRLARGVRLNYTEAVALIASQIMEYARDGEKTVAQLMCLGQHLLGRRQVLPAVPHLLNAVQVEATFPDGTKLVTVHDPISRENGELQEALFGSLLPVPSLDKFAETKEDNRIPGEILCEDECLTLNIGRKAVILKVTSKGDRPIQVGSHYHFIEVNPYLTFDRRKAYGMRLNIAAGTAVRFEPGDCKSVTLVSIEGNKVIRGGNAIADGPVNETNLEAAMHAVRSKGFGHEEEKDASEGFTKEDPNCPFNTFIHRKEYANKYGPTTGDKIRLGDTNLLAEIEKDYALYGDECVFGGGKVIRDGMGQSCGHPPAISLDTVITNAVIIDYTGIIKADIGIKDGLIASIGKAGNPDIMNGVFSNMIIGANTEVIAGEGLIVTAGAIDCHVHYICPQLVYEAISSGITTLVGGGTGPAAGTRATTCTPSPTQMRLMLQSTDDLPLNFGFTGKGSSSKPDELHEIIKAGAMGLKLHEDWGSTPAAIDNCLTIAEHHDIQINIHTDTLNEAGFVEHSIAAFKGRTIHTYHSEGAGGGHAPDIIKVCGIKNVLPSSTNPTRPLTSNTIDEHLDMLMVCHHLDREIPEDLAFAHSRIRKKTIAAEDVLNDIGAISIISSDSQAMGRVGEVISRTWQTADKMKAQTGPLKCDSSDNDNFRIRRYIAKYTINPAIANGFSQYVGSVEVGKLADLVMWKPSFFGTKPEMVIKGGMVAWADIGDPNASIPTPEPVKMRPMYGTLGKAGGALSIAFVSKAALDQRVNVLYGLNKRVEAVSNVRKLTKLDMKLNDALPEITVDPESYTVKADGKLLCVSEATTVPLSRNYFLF
In short: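 Purified JBU (0.1 U) incubated at 37 °C with shaking with test metabolites, 500mM urea and phenol red. OD562 read every 60 seconds for 90 minutes; activity from AUC as percent of maximum relative to untreated JBU. AHA positive control.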

[4] = biological target: T4, urease of P. mirabilis cell free extracts (Proteus mirabilis, UniProt P17086); type: biochemical; conditions: for type of urease inhibition: Michaelis-Menten parameters, Lineweaver-Burke plot
T4 construct: 20ul of cell-free extract were distributed into a 96-well plate in place of the whole cell bacterial suspensions; endogenous in cells; host or cells: Proteus mirabilis HI4320, urea-induced; freeze-thaw and sonication lysate, clarified supernatant
T4 sequence (P17086 whole entry): as the sequence (P17086 whole entry) above
T4 sequence (P17088 whole entry, further chain): as the sequence (P17088 whole entry, further chain) above
T4 sequence (P17087 whole entry, further chain): as the sequence (P17087 whole entry, further chain) above
Experimental: For the kinetic analysis of the urease reaction in the presence of urease dampening metabolites, urease activity assays were repeated with the P. mirabilis cell free extracts. Six different inhibitor concentrations that gave linear rates of reaction over a period of 120 min were tested for their effects on urease activity in the presence of urea concentrations ranging from 0 to 500 mM. Simple linear regression was performed on the absorbance (OD562) over 120 minutes for each condition and plotted as Initial velocity (slope) vs urea concentration. These initial hyperbolic plots were converted to double-reciprocal Lineweaver-Burke plots, and the pattern of inhibition inferred from the point of intersection of the lines. Finally, the Ki for a particular compound was determined by plotting the Km/Vmax ratio (the slope of the Lineweaver-Burke plots) of each line as a function of the inhibitor concentration as described by ref. [49]. The X-intercept corresponded to –Ki.

[5] = biological target: T1, P. mirabilis urease; type: cell-based; conditions: for Compound 2 %I alone: kphos; for Combination index (CI): in combination with AHA
In short: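 P. mirabilis urease activity measured with metabolites at 4-6 concentrations, alone and in combination, in technical triplicate. Percent inhibition versus untreated P. mirabilis derived from average area under the curve over 120-180 min; combination indexes tested against 1 (additive) by one-sample T test.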

Compound	sub-inhibitory concentrations that still decrease P. mirabilis urease activity ([1]; concentrations not inhibiting growth/viability) [mM]	Urease dampening activity ([1]; highest concentration tested 0.625mM)	effect on P. mirabilis urease activity (whole cell) [1]	urease activity of cell free P. mirabilis extracts [2]	JBU activity [3]	change of estimated Km on addition of metabolite [4]	change of estimated Vmax on addition of metabolite [4]	type of urease inhibition [4]	Compound 2 %I alone ([5]; Compound 2 [] alone 0.0782, assay date 2024 08 07) [%]	Compound 2 %I alone ([5]; Compound 2 [] alone 0.156, assay date 2024 08 07) [%]	Compound 2 %I alone ([5]; Compound 2 [] alone 0.156, assay date 2024 08 09) [%]	Dampens urease activity ([1]; biosynthetic pathway/functional group screen, highest concentration tested 20mM)	concentrations required to achieve a significant combination index [5] [mM]	Combination index (CI) [5]	Urease dampening activity ([1]; screen of candidate metabolites, highest concentration tested 20mM, * Trending but not statistically significant, listed as Histamine HCl)	concentrations at which JBU activity was significantly inhibited [3] [mM]
O.O=C(O)[C@H](O)Cc1cnc[nH]1 [D-imidazole lactate, D-imidazolelactic acid hydrate]	≤ 0.0391	Yes	more potent activity profile compared to the L-imidazole lactate	at least partially inhibiting	inhibited	remain roughly unchanged	decrease	non-competitive inhibition	34.9	60.4	49.2					
Cl.O=C(O)Cc1cnc[nH]1 [4-imidazole acetate, 2-(1H-Imidazol-5-yl)acetic acid hydrochloride]			additional hits	at least partially inhibiting	inhibited	increase	decrease	mixed inhibitors				Yes	< 50	< 1		
NCCc1c[nH]cn1 [Histamine, histamine dihydrochloride]			reproducibly decreased	at least partially inhibiting		increase	decrease	mixed inhibitors					< 50	< 1	Yes	> 20
